Calls of active or inactive are those of the source. The rule behind the calls is not given here.
Assays:
[1] = Potency index, ratio of IC50 for lenalidomide to test compound IC50 for antiproliferative activity against human MM1.R cells assessed as inhibition of cell growth measured after 72 hrs by MTS assay; format: functional
[2] = Tmax in ICR mouse plasma at 10 mg/kg, po; format: ADME, organism-based
MM.1R [3] = assay: Antiproliferative activity against human MM1.R cells with siRNA mediated IRF4#1 knockdown at 0.125 to 1 uM measured upto 5 days by MTS assay; format: functional, cell-based; conditions: dose 0.125-1 µM, time <= 5.0 day
MM.1R [4] = assay: Antiproliferative activity against human MM1.R cells assessed as inhibition of 3D clone forming ability measured after 2 to 3 weeks; format: functional, cell-based; conditions: dose 0.125-1 µM, time 2-3 weeks
NCI-H929 [5] = assay: Induction of cell cycle arrest in human NCI-H929 cells assessed as accumulation of cells at G2 phase at 0.125 uM measured after 24 hrs by flow cytometry analysis (reference value: 13.37%); format: functional
NCI-H929 [6] = assay: Induction of cell cycle arrest in human NCI-H929 cells assessed as accumulation of cells at G2 phase at 0.5 uM measured after 24 hrs by flow cytometry analysis (reference value: 13.37%); format: functional
NCI-H929 [7] = assay: Antitumor activity against human NCI-H929 cells xenografted in Balb/C nude mouse model assessed as increase in gammaH2AX expression at 25 mg/kg by Western blot analysis; format: functional, organism-based
[8] = Antiproliferative activity against human HaCaT cells assessed as inhibition of cell viability measured after 72 hrs by MTS assay; format: toxicity, cell-based
NCI-H929 [9] = assay: Induction of cell cycle arrest in human NCI-H929 cells assessed as accumulation of cells at G1 phase at 0.25 uM measured after 24 hrs by flow cytometry analysis (reference value: 54.12%); format: functional
RPMI-8226 = assay: Antiproliferative activity against human RPMI-8226 cells overexpressing IRF4 at 0.125 to 1 uM measured after 72 hrs by MTS assay; format: functional, cell-based; conditions: dose 0.125-1 µM
NCI-H929 [10] = assay: Antitumor activity against human NCI-H929 cells xenografted in Balb/C nude mouse model assessed as inhibition of ERK phosphorylation level at 25 mg/kg by Western blot analysis; format: functional, organism-based
[11] = Toxicity in Balb/C nude mouse assessed as changes in main organ at 12.5 to 25 mg/kg administered once daily and measured every three days for 34 days by H and E staining based analysis; format: organism-based; conditions: in vivo, 816 h, dose 12.5-25 mg/kg, time 34 day
MM.1R [12] = assay: Induction of cell cycle arrest in human MM1.R cells assessed as inhibition of cyclin D1 protein expression at 0.1 to 1 uM; format: functional, cell-based; conditions: dose 0.1-1 µM
NCI-H929 [13] = assay: Induction of cell cycle arrest in human NCI-H929 cells assessed as accumulation of cells at G2 phase at 0.25 uM measured after 24 hrs by flow cytometry analysis (reference value: 13.37%); format: functional
HaCaT = assay: Effect on IRF4 expression in human HaCaT cells by Western blot analysis; format: functional, cell-based
[14] = Toxicity in Balb/C nude mouse assessed as change in body weight at 12.5 to 25 mg/kg administered once daily and measured every three days for 34 days; format: organism-based; conditions: in vivo, 816 h, dose 12.5-25 mg/kg, time 34 day
NCI-H929 [15] = assay: Induction of DNA damage in human NCI-H929 cells assessed as increase in gammaH2AX expression at 0.1 to 1 uM by Western blot analysis; format: functional, cell-based; conditions: dose 0.1-1 µM
[16] = Terminal elimination half life in ICR mouse plasma at 1.0 mg/kg, iv; format: ADME, organism-based; conditions: read-out: beta t1/2 (converted)
NCI-H929 [17] = assay: Effect on IRF4 expression in human NCI-H929 cells with siRNA mediated IRF4 knockdown by Western blot analysis; format: functional, cell-based
[18] = Toxicity in Balb/C nude mouse assessed as side effects at 12.5 to 25 mg/kg administered once daily and measured every three days for 34 days by H and E staining based analysis; format: organism-based; conditions: in vivo, 816 h, dose 12.5-25 mg/kg, time 34 day
MM.1R [19] = assay: Downregulation of CMYC expression in human MM1.R cells measured after 24 hrs by qRT-PCR analysis; format: functional, cell-based; conditions: dose 0.125-1 µM
[20] = Potency index, ratio of IC50 for lenalidomide to test compound IC50 for antiproliferative activity against human NCI-H929 cells assessed as inhibition of cell growth measured after 72 hrs by MTS assay; format: functional
NCI-H929 [21] = assay: Induction of cell cycle arrest in human NCI-H929 cells assessed as accumulation of cells at G1 phase at 0.125 uM measured after 24 hrs by flow cytometry analysis (reference value: 54.12%); format: functional
[22] = Tmax in ICR mouse plasma at 1.0 mg/kg, iv; format: ADME, organism-based
[23] = Cmax in ICR mouse plasma at 10 mg/kg, po; format: ADME, organism-based
MM.1R [24] = assay: Downregulation of CANX expression in human MM1.R cells measured after 24 hrs by qRT-PCR analysis; format: functional, cell-based; conditions: dose 0.125-1 µM
NCI-H929 [25] = assay: Induction of cell cycle arrest in human NCI-H929 cells assessed as inhibition of CMYC protein expression at 0.1 to 1 uM; format: functional, cell-based; conditions: dose 0.1-1 µM
[26] = biological target: T1, Interferon regulatory factor 3 (Homo sapiens) (UniProt Q14653); assay: Induction of thermal stabilization of IRF3 in human NCI-H929 cells at 42 to 42.3 degree C by […] method; format: cell-based
T1 sequence (whole entry): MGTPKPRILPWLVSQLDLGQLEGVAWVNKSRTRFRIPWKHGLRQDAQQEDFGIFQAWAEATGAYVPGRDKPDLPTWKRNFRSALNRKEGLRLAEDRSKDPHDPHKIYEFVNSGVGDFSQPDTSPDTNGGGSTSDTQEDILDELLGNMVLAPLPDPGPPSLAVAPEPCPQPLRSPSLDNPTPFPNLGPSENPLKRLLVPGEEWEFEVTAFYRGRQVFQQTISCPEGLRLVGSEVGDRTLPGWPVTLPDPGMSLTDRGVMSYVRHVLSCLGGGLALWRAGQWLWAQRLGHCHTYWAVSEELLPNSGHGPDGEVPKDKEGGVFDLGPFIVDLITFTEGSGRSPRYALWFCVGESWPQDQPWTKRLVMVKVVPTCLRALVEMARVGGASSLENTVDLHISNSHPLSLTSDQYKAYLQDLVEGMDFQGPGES

NCI-H929 [27] = assay: Induction of cell cycle arrest in human NCI-H929 cells assessed as inhibition of CDC2 protein expression at 0.1 to 1 uM; format: functional, cell-based; conditions: dose 0.1-1 µM
[28] = Cmax in ICR mouse plasma at 1.0 mg/kg, iv; format: ADME, organism-based
NCI-H929 [29] = assay: Downregulation of CMYC expression in human NCI-H929 cells measured after 24 hrs by qRT-PCR analysis; format: functional, cell-based; conditions: dose 0.125-1 µM
NCI-H929 [30] = assay: Induction of cell cycle arrest in human NCI-H929 cells assessed as inhibition of cyclin B1 protein expression at 0.1 to 1 uM; format: functional, cell-based; conditions: dose 0.1-1 µM
NCI-H929 [31] = assay: Antitumor activity against human NCI-H929 cells xenografted in Balb/C nude mouse model assessed as inhibition of Akt phosphorylation level at 25 mg/kg by Western blot analysis; format: functional, organism-based
[32] = Terminal elimination half life in ICR mouse plasma at 10 mg/kg, po; format: ADME, organism-based; conditions: read-out: beta t1/2 (converted)

COc1ccc(NC(=O)[C@@H](C)[C@H]2CC[C@H]3[C@@H]4C(=O)C=C5C(C)(C)C(=O)C(C#N)=C[C@]5(C)[C@H]4CC[C@]23C)cc1
Ratio IC50 [1]: 30
Tmax [2]: 31.8 min
Activity (MM.1R [3]): Active
Activity (MM.1R [4]): Dose-dependent-effect
Activity (NCI-H929 [5]): 11.45%
Activity (NCI-H929 [6]): 10.56%
Activity (NCI-H929 [7]): Active
IC50 at 72 h [8]: > 100 µM
Activity (NCI-H929 [9]): 60.31%
Activity (RPMI-8226): Active
Activity (NCI-H929 [10]): Active
Activity [11]: Non-toxic
Activity (MM.1R [12]): Active
Activity (NCI-H929 [13]): 14.14%
Activity (HaCaT): inactive
Activity [14]: Non-toxic
Activity (NCI-H929 [15]): Active
half-life [16]: 75 min
Activity (NCI-H929 [17]): Active
Activity [18]: Non-toxic
Activity (MM.1R [19]): Active
Ratio IC50 [20]: 30
Activity (NCI-H929 [21]): 57.62%
Tmax [22]: 4.8 min
Cmax [23]: 82 ng/mL
Activity (MM.1R [24]): Active
Activity (NCI-H929 [25]): Active
Activity [26]: inactive
Activity (NCI-H929 [27]): Active
Cmax [28]: 174 ng/mL
Activity (NCI-H929 [29]): Active
Activity (NCI-H929 [30]): Active
Activity (NCI-H929 [31]): Active
half-life [32]: 403 min
